Experimental data taken from US20130331266A1, “METHOD FOR CONTROLLING WEEDS IN PADDY RICE CULTIVATION” (SUMITOMO CHEMICAL COMPANY, LIMITED, priority 2011, published 2013).

How the values were obtained:
Type in all cases: in vivo
Echinochloa oryzicola [1] = experiment: Pot test Example 3: herbicidal effect on Echinochloa oryzicola, spray on drained soil then flooding; conditions: score 0-100, 25 g/ha, 4th leaf stage, evaluated 2 weeks after application
Experimental: (§1) In Examples of the method of the present invention, a criterion for evaluating a herbicidal effect is as follows.
A 1/10000-are pot was filled with a paddy field soil, and then water was added thereto followed by soil puddling. After draining, a pre-germinated Echinochloa oryzicola was sown, and then grown in a glasshouse. Sixteen (16) days after the sowing when Echinochloa oryzicola had the 4th leaves, each water-diluted solution containing 112 ppm of Compound 2 or Compound 3 was applied by spraying on the surface of the pot with a sprayer so that each amount of Compound 2 and Compound 3 as listed in Table 3 was applied. Each water-diluted solution of Compound 2 and Compound 3 was prepared by dissolving a given amount of Compound 2 or Compound 3 in acetone containing 2% (w/v) of Tween 20, followed by diluting the resulting solution with water so that the concentration of acetone was 10% by volume. When applying the water-diluted solution, the soil was well drained. The pot was flooded with water to a depth of 5 cm on the day of the application of the herbicide, the next day of the application of the herbicide, 3 days after the application of the herbicide, or 7 days after the application of the herbicide. And then, the plant was grown in the glasshouse.
Two (2) weeks after the application of the herbicide, the herbicidal effect on Echinochloa oryzicola was evaluated.

Leptochloa chinenisis = experiment: Pot test Example 5: herbicidal effect on Leptochloa chinenisis, spray at 0.5 cm water then flooding; conditions: score 0-100, 100 g/ha, second or third leaf stage, evaluated 2 weeks after application
Experimental: as §1
A 1/10000-are Wagner pot was filled with a paddy field soil, and then water was added thereto followed by soil puddling. After draining, a pre-germinated Leptochloa chinenisis was sown, and then grown in a glasshouse. Sixteen (16) days after the sowing when Leptochloa chinenisis had the second or third leaves, each water-diluted solution containing 50 ppm of Compound 1, Compound 2, or Compound 3 was applied by spraying on the surface of the pot with a sprayer so that each amount of Compound 1, Compound 2, and Compound 3 as listed in Table 4 was applied. When applying the water-diluted solution, the pot was flooded to a depth of 0.5 cm. The pot was flooded with water to a depth of 4 cm or 2 cm on the next day of the application of the herbicide or 5 days after the application of the herbicide. And then, the plant was grown in the glasshouse.
Two (2) weeks after the application of the herbicide, the herbicidal effect on Leptochloa chinenisis was evaluated.

Echinochloa oryzicola [2] = experiment: Pot test Example 1: herbicidal effect on Echinochloa oryzicola, spray on drained soil then flooding; conditions: score 0-100, 30 g/ha, 4th leaf stage, evaluated 4 weeks after application
Experimental: as §1
(§2) A 1/5000-are Wagner pot was filled with a paddy field soil, and then water was added thereto followed by soil puddling. After draining, a pre-germinated Echinochloa oryzicola was sown, and then grown in a glasshouse. Fourteen (14) days after the sowing when Echinochloa oryzicola had the 4th leaves, a water-diluted solution (134 ppm of Compound 1) of a flowable containing 10% Compound 1 was applied by spraying on the surface of the pot with a sprayer so that the amount of Compound 1 as listed in Table 1 was applied. When applying the water-diluted solution, the soil was well drained. The pot was flooded with water to a depth of 5 cm on the day of the application of the herbicide, the next day of the application of the herbicide, or 3 days after the application of the herbicide. And then, the plant was grown in the glasshouse. Four (4) weeks after the application of the herbicide, the herbicidal effect on Echinochloa oryzicola was evaluated.

Echinochloa oryzicola [3] = experiment: Pot test Example 2: herbicidal effect on Echinochloa oryzicola, spray on drained soil then flooding; conditions: score 0-100, 25 g/ha, 4th leaf stage, evaluated 4 weeks after application
Experimental: as §1
as §2, with “A 1/10000-are” for “A 1/5000-are Wagner”, “glasshouse. Sixteen (16)” for “glasshouse. Fourteen (14)”, “solution (112” for “solution (134”, “1)” for “1) of”, “Table 2” for “Table 1”, “applying with” for “applying”

[4] = flooded to 5 cm 3 days after treatment
[5] = flooded to 5 cm 7 days after treatment
[6] = flooded to 5 cm on day of treatment
[7] = flooded to 5 cm on next day of treatment
[8] = flooded 5 days after treatment, depth 4 cm
[9] = flooded next day of treatment, depth 2 cm
[10] = flooded next day of treatment, depth 4 cm

| SMILES | Herbicidal effect on Echinochloa oryzicola (Echinochloa oryzicola [1]; [4]) | Herbicidal effect on Echinochloa oryzicola (Echinochloa oryzicola [1]; [5]) | Herbicidal effect on Echinochloa oryzicola (Echinochloa oryzicola [1]; [6]) | Herbicidal effect on Echinochloa oryzicola (Echinochloa oryzicola [1]; [7]) | Herbicidal effect on Leptochloa chinenisis (Leptochloa chinenisis; [8]) | Herbicidal effect on Leptochloa chinenisis (Leptochloa chinenisis; [9]) | Herbicidal effect on Leptochloa chinenisis (Leptochloa chinenisis; [10]) | Herbicidal effect on Echinochloa oryzicola (Echinochloa oryzicola [2]; [4]) | Herbicidal effect on Echinochloa oryzicola (Echinochloa oryzicola [2]; [6]) | Herbicidal effect on Echinochloa oryzicola (Echinochloa oryzicola [2]; [7]) | Herbicidal effect on Echinochloa oryzicola (Echinochloa oryzicola [3]; [4]) | Herbicidal effect on Echinochloa oryzicola (Echinochloa oryzicola [3]; [6]) | Herbicidal effect on Echinochloa oryzicola (Echinochloa oryzicola [3]; [7]) |
| --- | --- | --- | --- | --- | --- | --- | --- | --- | --- | --- | --- | --- | --- |
| COCc1cccc(C(O)c2nc(OC)cc(OC)n2)c1NS(=O)(=O)C(F)F (racemic) [Compound 2, (RS)-2′-[(4,6-Dimethoxypyrimidin-2-yl)(hydroxy)methyl]-1,1-difluoro-6′-(methoxymethyl)methanesulfonanilide] | 90 | 80 | 89 | 92 | 80 | 80 | 90 | – | – | – | – | – | – |
| COc1cc(OC)nc(NC(=O)NS(=O)(=O)c2c(C3=NOCC(C)O3)c(Cl)nn2C)n1 (racemic) [Compound 3, 1-{3-Chloro-1-methyl-4-[(5RS)-5,6-dihydro-5-methyl-1,4,2-dioxazin-3-yl]pyrazol-5-ylsulfonyl}-3-(4,6-dimethoxypyrimidin-2-yl)urea] | 75 | 75 | 83 | 83 | 60 | – | 90 | – | – | – | – | – | – |
| CCCc1ccc2nc(Cl)c(S(=O)(=O)NC(=O)Nc3nc(OC)cc(OC)n3)n2n1 [Compound 1, 1-(2-Chloro-6-propylimidazo[1,2-b]pyridazin-3-ylsulfonyl)-3-(4,6-dimethoxypyrimidin-2-yl)urea] | – | – | – | – | 75 | 75 | 90 | 90 | 96 | 97 | 85 | 88 | 93 |
